Source: patent EP2065039A1, “Selective inhibition of Polo-like kinase 1” (Max-Planck-Gesellschaft zur Förderung der Wissenschaften …, priority 2007, dated 2009)
Read-outs that look alike come from different tables or passages of the source.

Tests used:
STAT3 SH2 domain = target: T1, STAT3 SH2 domain (Homo sapiens, UniProt P40763); assay: Fluorescence polarization specificity assay, STAT3 SH2 domain; type: binding; conditions: STAT3 160 nM; incubation with inhibitor 1 hr at 22 °C prior to addition of fluorophore-labeled peptide; read-out: apparent IC50
T1 construct: made in house
From the text: (§1) DNA sequences coding for human Plk1 amino acids 326-603, human Plk2 amino acids 355-685, and human Plk3 amino acids 335-646 comprising the respective polo-box domains were amplified by PCR from plasmid DNA (Plk1) or placenta cDNA (Plk2, Plk3) and cloned into a modified pET28a (Plk1) or a modified pQE70 vector (Plk2 and Plk3). Similarly, nucleotides coding for the […] (FHA) of the kinase Chk2 (amino acids 1-225) and the WW domain of the proline isomerase Pin1 (amino acids 1-162) were amplified by PCR from HeLa S3 and placenta cDNA, respectively, and cloned into a modified pET28a vector. The design of expression plasmids coding for STAT1, STAT3, STATSb, and Lck has been described before and belongs to the knowledge of a skilled person. […] Wild-type and mutant PBD sequences were cloned into a modified pCS2 mammalian expression vector carrying a myc-tag. […]
(§2) Diverse Chemical libraries consisting of 22461 small molecules were tested in a fluorescence polarization assay which analyzes binding between 5-carboxyfluorescein-GPMQST(P03H2)PLNG-OH (final concentration: 10 nM) and the Plk1 polo-box domain (final concentration: 65 nM). […]

HeLa cells = assay: Mitotic arrest / cell cycle analysis in synchronized HeLa cells (Western blot, flow cytometry); type: cell-based; conditions: for mitotic arrest in HeLa cells: HeLa cells synchronized by thymidine block, released into medium containing compound, Figs. 5A-5C
From the text: Figure 1A/B Comparative IC50 inhibition curves with preferred compounds [1] (poloxin) and [14] (thymoquinone, TQ) versus Plk1, Plk2, Plk3, Chk2, Pin1, Stat1, Stat3, Stat5 and Lck. Figure 2 Cellular effects of poloxin and thymoquinone (TQ): Mitotic indices of HeLa cells 14 hrs after release from G1/S block. Figure 3 Distribution of mitotic phases and chromosome congression defects within the metaphase population in the presence of poloxin and thymoquinone (TQ). […]. […] Unsynchronized cells (control), cells synchronized with nocodazol (Noc) or thymidine (Thym), or cells released from thymidine block in the medium containing only DMSO (DMSO) were analyzed for comparison. Figure 5B Analysis of cell cycle distribution by fluorescence-activated flow cytometry. Cells were treated as in 5A. A representative example is shown. Figure 5C Quantification of the cell cycle analysis as shown in 5B (n=3). […]. […] Figure 6B Overexpression of PBD wild-type (wt), but not of the triple mutant PBD FAA, induces mitotic arrest in HeLa cells.
HeLa cells were maintained in Dulbecco's Modified Eagle-Medium (High Glucose) supplemented with 2 mM L-glutamine, 1 mM sodium pyruvate, 10% foetal calf serum, 100 U/mL penicillin, and 100 µg/mL streptomycin (GIBCO and PAA). For the Western blot analysis Fig. 5A, HeLa cells were arrested at the G1/S boundary by thymidine block, and released into thymidine-free medium containing the indicated concentration of compounds at a final DMSO concentration of 0.5%. After 7 hours, medium was replaced with fresh medium which also contained the indicated concentration of compound. […]
For the determination of mitotic indices shown in Fig. 6A, the number of mitotic cells within a population of 200-300 cells was counted. For the determination of the mitotic phase distribution shown in Fig. 6B, populations of approximately 50 mitotic cells were analyzed. […] The DNA content of 30000 cells was determined with a FACScan flow cytometer (BD Biosciences). The data were analyzed with cell cycle analysis Software MODFIT LT 2.0 (Verity Software House). […]

Plk2 PBD = target: T2, Plk2 PBD (Homo sapiens, UniProt Q9NYY3); assay: Fluorescence polarization specificity assay, Plk2 PBD; type: binding; conditions: Plk2 PBD 130 nM; incubation with inhibitor 1 hr at 22 °C prior to addition of fluorophore-labeled peptide; read-out: apparent IC50
T2 construct: human Plk2 amino acids 355-685; made in house; host or cells: E. coli Rosetta BL21 DE3
T2 sequence (Q9NYY3 355-685): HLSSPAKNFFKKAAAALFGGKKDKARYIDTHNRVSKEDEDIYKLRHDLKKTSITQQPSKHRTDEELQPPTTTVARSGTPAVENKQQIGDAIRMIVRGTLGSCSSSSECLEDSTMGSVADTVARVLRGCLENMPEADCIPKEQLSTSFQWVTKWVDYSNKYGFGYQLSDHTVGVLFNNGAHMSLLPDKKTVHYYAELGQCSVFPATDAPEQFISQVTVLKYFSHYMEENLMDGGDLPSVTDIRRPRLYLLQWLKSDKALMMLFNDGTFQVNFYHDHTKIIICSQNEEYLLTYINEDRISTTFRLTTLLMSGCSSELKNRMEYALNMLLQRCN
From the text: as §1, §2

Chk2 FHA domain = target: T3, Chk2 FHA domain (Homo sapiens, UniProt O96017); assay: Fluorescence polarization specificity assay, Chk2 FHA domain; type: binding; conditions: Chk2 240 nM; incubation with inhibitor 1 hr at 22 °C prior to addition of fluorophore-labeled peptide; read-out: apparent IC50
T3 construct: kinase Chk2 (amino acids 1-225); made in house; host or cells: E. coli Rosetta BL21 DE3
From the text: as §1, §2

STAT5 SH2 domain = target: T4, STAT5 SH2 domain (Homo sapiens, UniProt P51692); assay: Fluorescence polarization specificity assay, STAT5 SH2 domain; type: binding; conditions: STAT5b 110 nM, incubation with inhibitor 1 hr at 22 °C prior to addition of fluorophore-labeled peptide, read-out: apparent IC50
T4 construct: made in house
T4 sequence (P51692 136-703 limits assumed): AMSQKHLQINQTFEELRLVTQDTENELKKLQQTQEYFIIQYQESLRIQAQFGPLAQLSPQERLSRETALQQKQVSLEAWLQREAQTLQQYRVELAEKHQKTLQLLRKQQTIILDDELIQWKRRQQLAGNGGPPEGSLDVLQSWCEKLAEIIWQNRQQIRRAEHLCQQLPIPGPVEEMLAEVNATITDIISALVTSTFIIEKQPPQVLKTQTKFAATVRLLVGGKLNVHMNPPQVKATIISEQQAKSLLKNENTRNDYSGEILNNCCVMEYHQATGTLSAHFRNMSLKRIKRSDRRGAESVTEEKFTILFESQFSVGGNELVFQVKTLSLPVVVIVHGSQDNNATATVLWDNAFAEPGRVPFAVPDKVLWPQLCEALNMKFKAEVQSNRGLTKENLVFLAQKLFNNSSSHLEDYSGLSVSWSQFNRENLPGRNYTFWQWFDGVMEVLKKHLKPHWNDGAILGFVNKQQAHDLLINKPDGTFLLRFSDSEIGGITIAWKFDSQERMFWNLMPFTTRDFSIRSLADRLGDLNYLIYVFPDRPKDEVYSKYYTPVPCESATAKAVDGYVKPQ
From the text: as §1, §2

Pin1 WW domain = target: T5, Pin1 WW domain (Homo sapiens, UniProt Q13526); assay: Fluorescence polarization specificity assay, Pin1 WW domain; type: binding; conditions: Pin1 1000 nM; incubation with inhibitor 1 hr at 22 °C prior to addition of fluorophore-labeled peptide; read-out: apparent IC50
T5 construct: proline isomerase Pin1 (amino acids 1-162); made in house; host or cells: E. coli Rosetta BL21 DE3
From the text: as §1, §2

Lck SH2 domain = Lck SH2 domain (Homo sapiens, UniProt P06239); assay: Fluorescence polarization specificity assay, Lck SH2 domain; type: binding
From the text: as §1, §2

Plk3 PBD = target: T6, Plk3 PBD (Homo sapiens, UniProt Q9H4B4); assay: Fluorescence polarization specificity assay, Plk3 PBD; type: binding; conditions: Plk3 PBD 1875 nM; incubation with inhibitor 1 hr at 22 °C prior to addition of fluorophore-labeled peptide; read-out: apparent IC50
T6 construct: human Plk3 amino acids 335-646; made in house; host or cells: E. coli Rosetta BL21 DE3
T6 sequence (Q9H4B4 335-646): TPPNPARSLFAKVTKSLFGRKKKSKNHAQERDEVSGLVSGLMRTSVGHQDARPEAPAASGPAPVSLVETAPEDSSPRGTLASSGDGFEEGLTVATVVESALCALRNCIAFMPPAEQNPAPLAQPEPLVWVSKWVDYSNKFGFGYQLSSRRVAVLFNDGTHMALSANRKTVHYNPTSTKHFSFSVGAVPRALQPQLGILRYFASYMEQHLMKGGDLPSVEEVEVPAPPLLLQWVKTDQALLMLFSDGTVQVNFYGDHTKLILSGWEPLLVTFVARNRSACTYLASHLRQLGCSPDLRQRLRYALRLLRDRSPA
Description: Purified proteins were aliquoted, snap-frozen in liquid nitrogen, and stored at -80°C before use. Binding curve experiments were done for each protein batch before inhibition experiments were started.
The final concentration of buffer components used was: 10 mM Tris, pH 8.0, 50 mM NaCl, 1 mM EDTA, 0.1 % Nonidet P-40, and 10% DMSO. The Plk1 PBD was incubated with compounds for 60 min prior to addition of the fluoropeptide. Screening was performed at room temperature. The following fluorophore-labeled peptides were used for specificity assays: • Plk2: 5-carboxyfluorescein-GPMQTST(PO3H2)PKNG-OH; • Plk3: 5-carboxyfluorescein-GPLATST(PO3H2)PKNG-OH; • Chk2: 5-carboxyfluorescein-GHFDT(PO3H2)YLIRR-OH; • Pin 1: 5-carboxyfluorescein-GWFYS(PO3H2)PRLKK-OH; • STAT1: 5-carboxyfluorescein-GY(PO3H2)DKPHVL-OH; • STAT3: 5-carboxyfluorescein-GY(PO3H2)LPQTV-NH2; • STAT5b: 5-carboxyfluorescein-GY(PO3H2)L VLDKW-OH;Lck:5-carboxyfluorescein-GY(P03H2)EEIP-OH.
Fluorescein-labeled peptides were >95% pure. […] Inhibition curves were fitted using SigmaPlot (SPSS Science Software GmbH).

STAT1 SH2 domain = STAT1 SH2 domain (Homo sapiens, UniProt P42224); assay: Fluorescence polarization specificity assay, STAT1 SH2 domain; type: binding
From the text: as §1, §2

T3 sequence (O96017 1-225): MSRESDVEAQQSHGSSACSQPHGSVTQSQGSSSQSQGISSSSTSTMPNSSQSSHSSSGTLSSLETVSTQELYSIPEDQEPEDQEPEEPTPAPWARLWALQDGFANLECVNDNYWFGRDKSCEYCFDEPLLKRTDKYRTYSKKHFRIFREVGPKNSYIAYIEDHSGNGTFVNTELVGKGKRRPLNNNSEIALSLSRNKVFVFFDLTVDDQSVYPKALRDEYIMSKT
Sequence of Lck SH2 domain (P06239 127-224): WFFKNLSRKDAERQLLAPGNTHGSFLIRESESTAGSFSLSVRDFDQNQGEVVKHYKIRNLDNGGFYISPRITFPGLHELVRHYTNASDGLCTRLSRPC
Sequence of STAT1 SH2 domain (P42224 132-713): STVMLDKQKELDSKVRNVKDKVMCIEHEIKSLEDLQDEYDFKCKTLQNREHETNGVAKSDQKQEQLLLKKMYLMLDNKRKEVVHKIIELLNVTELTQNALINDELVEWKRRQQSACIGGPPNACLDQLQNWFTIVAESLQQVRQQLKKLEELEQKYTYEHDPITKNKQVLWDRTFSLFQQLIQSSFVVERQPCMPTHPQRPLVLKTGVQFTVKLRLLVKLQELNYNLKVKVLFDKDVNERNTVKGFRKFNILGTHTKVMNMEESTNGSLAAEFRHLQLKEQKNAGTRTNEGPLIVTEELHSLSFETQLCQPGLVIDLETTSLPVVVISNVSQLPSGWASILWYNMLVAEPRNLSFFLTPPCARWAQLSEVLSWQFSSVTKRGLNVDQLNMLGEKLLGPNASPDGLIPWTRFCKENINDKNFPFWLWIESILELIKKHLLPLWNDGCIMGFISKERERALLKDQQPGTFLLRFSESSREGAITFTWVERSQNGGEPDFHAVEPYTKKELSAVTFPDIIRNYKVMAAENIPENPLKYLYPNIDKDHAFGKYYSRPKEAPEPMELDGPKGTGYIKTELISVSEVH
T1 sequence (P40763 127-722 limits assumed): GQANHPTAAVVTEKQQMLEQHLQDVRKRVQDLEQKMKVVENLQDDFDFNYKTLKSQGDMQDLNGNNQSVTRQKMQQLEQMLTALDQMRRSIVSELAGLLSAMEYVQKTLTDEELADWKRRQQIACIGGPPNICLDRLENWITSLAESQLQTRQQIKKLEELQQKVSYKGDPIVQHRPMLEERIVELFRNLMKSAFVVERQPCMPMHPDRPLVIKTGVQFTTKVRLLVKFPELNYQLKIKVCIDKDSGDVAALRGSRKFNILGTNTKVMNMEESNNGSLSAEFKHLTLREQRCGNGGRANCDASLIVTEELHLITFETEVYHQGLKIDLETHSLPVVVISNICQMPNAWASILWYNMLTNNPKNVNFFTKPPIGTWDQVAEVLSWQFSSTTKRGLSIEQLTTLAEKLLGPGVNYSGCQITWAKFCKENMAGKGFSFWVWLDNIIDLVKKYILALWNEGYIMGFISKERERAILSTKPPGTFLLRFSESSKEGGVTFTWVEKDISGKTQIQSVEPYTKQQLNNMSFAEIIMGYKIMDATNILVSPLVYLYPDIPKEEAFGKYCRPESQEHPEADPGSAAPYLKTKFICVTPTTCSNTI
T5 sequence (Q13526 1-162): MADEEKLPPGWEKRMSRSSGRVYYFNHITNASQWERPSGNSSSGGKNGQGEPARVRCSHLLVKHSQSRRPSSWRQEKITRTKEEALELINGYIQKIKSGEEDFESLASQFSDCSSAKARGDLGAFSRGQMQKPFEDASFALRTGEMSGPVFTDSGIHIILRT

Row | SMILES | IC50 (STAT3 SH2 domain) [µM] | toxic side effects in cell cycle analysis (HeLa cells; 25 µM, HeLa cells, flow cytometry, quantification of cell cycle profile unfeasible (Fig. 5C)) | mitotic arrest in HeLa cells (HeLa cells) | IC50 (Plk2 PBD) [µM] | IC50 (Chk2 FHA domain) [µM] | IC50 (STAT5 SH2 domain) [mM] | IC50 (Pin1 WW domain) [µM] | IC50 (Lck SH2 domain) [mM] | IC50 (Plk3 PBD) [µM] | IC50 (STAT1 SH2 domain) [mM] | IC50 (STAT5 SH2 domain; value in mM) [mM] | IC50 (Lck SH2 domain; Lck 40 nM, incubation with inhibitor 1 hr at 22 °C prior to addition of fluorophore-labeled peptide, read-out: apparent IC50) [mM] | IC50 (STAT1 SH2 domain; STAT1 120 nM, incubation with inhibitor 1 hr at 22 °C prior to addition of fluorophore-labeled peptide, read-out: apparent IC50) [mM]
1 | CC1=CC(=O)C(C(C)C)=CC1=O [Thymoquinone, thymoquinone] | 10.9 ± 0.2 | toxic side effects | induce mitotic arrest | 1.9 ± 0.1 | 3.9 ± 0.6 | > 0.24 | 20.4 ± 0.9 | > 5 | 22.4 ± 0.8 | > 5 |  |  | 
2 | CC1=CC(=O)C(C(C)C)=CC1=NOC(=O)c1ccccc1C [Poloxin] | > 285 |  | induce mitotic arrest | 18.7 ± 1.8 | > 330 |  | > 215 |  |  |  | > 1 | > 5 | > 0.555
